Measurements reported in patent US8263555B2 (Alcon Research, Ltd., priority 2007, dated 2012).
Several values for one entry are separate records, joined by “and”; a condition that tells them apart may be missing. Equal values may be shown once.

Assays:
[1] = target: T1, B2-receptors in h-NPE cells (Homo sapiens, UniProt P30411); experiment: BK- and BK-related peptide-induced [Ca^2+]i mobilization in h-NPE cells (agonist potency); assay type: cell-based; settings: BK = 100%, read-out: Intrinsic Activity (Emax, % max relative to BK)
T1 construct: we discovered and pharmacologically characterized B2-receptor proteins in h-TM, h-CM and h-NPE cells; endogenous in cells; host or cells: immortalized human non-pigmented ciliary epithelial (h-NPE) cells
T1 sequence (P30411 1-391): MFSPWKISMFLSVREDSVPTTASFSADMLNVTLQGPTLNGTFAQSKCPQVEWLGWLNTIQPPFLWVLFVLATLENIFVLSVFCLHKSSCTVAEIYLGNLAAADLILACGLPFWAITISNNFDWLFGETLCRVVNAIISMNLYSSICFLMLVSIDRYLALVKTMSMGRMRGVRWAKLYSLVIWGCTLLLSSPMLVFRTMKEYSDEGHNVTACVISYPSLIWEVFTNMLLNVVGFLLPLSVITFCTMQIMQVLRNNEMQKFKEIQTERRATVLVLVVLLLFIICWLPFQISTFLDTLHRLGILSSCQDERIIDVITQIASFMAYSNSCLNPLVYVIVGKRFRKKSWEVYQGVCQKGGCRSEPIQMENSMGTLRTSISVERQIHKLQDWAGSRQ

[2] = target: T2, BK B2-Receptor in h-TM cells (Homo sapiens, UniProt P30411); experiment: Antagonism of BK-induced [Ca^2+]i mobilization in h-TM cells; assay type: cell-based; settings: read-out: Antagonist Potency (Ki; nM) vs BK (10 nM) in [Ca^2+]i Mobilization Assay, mean ± SEM or individual experiments
T2 construct: we discovered and pharmacologically characterized B2-receptor proteins in h-TM, h-CM and h-NPE cells; endogenous in cells; host or cells: primary human trabecular meshwork (h-TM) cells
T2 sequence (P30411 1-391): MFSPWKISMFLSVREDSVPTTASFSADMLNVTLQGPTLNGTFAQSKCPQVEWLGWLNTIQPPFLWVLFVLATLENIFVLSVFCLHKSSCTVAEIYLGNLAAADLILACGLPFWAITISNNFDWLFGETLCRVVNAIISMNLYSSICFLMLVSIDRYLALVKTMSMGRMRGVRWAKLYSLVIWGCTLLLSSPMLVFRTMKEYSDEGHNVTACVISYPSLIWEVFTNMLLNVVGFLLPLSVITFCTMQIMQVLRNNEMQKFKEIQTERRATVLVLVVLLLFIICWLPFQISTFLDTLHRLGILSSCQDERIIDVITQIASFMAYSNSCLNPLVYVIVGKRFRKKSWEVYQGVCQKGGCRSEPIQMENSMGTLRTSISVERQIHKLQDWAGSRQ
Method: (§1) Opthalmol. Vis. Res. 47: 4001-4019, 2006; Sharif et al., J. Ocular Pharmacol. Ther. 22: 291-309, 2006).
On the day of the experiment, one vial of FLIPR Calcium Assay Kit dye is re-suspended in 50 mL of a FLIPR buffer consisting of Hank's Balanced Salt Solution (HBSS), 20 mM HEPES, and 2.5 mM probenecid, pH 7.4. Cells are loaded with the calcium-sensitive dye by addition of an equal volume (50 μL) to each well of the 96-well plate and incubated with dye for 1 h at 23° C. After this time, the test compound plate and cell plate are placed in the FLIPR instrument. At the beginning of an experimental run, a signal test is performed to check the basal fluorescence signal from the dye-loaded cells and the uniformity of the signal across the plate. The basal fluorescence is adjusted between 8000-12000 counts by modifying the exposure time, the camera F-stop, or the laser power. […]
Fluorescence data are collected in real-time at 1.0 sec intervals for the first 60 secs and at 6.0 sec intervals for an additional 120 secs. […] The data are then analyzed using an automated, iterative, sigmoidal curve-fitting computer program to obtain the potency and intrinsic activities of the test agents as previously described (Sharif et al. J. Pharmacol. Exp. Ther. 286: 1094-1102, 1998; Sharif et al. Invest. Opthalmol. Vis. Sci. 39:2562-2571, 1998; Kelly et al. J. Pharmacol. Exp. Ther. 304: 238-245, 2003). […]

[3] = target: T3, BK B2-Receptor in h-NPE cells (Homo sapiens, UniProt P30411); experiment: Antagonism of BK-induced [Ca^2+]i mobilization in immortalized h-NPE cells; assay type: cell-based; settings: read-out: Antagonist Potency (Ki; nM) vs BK (10 nM) in [Ca^2+]i Mobilization Assay, mean ± SEM or individual experiments
T3 construct: we discovered and pharmacologically characterized B2-receptor proteins in h-TM, h-CM and h-NPE cells; endogenous in cells; host or cells: immortalized human non-pigmented ciliary epithelial (h-NPE) cells
T3 sequence (P30411 1-391): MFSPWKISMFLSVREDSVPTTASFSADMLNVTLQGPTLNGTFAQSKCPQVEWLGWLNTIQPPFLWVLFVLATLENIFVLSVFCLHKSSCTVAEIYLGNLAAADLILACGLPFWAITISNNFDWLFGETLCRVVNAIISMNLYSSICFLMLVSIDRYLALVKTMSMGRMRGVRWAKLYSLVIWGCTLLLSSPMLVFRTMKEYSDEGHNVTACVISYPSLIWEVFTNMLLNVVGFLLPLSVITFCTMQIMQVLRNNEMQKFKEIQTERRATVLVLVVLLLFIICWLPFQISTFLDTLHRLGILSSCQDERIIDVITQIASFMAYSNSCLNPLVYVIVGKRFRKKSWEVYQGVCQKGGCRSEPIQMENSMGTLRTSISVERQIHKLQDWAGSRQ
Method: as §1
(§2) On the day of the experiment, one vial of FLIPR Calcium Assay Kit dye is re-suspended in 50 mL of a FLIPR buffer consisting of Hank's Balanced Salt Solution (HBSS), 20 mM HEPES, and 2.5 mM probenecid, pH 7.4. Cells are loaded with the calcium-sensitive dye by addition of an equal volume (50 μL) to each well of the 96-well plate and incubated with dye for 1 h at 23° C. After this time, the test compound plate and cell plate are placed in the FLIPR instrument. At the beginning of an experimental run, a signal test is performed to check the basal fluorescence signal from the dye-loaded cells and the uniformity of the signal across the plate. The basal fluorescence is adjusted between 8000-12000 counts by modifying the exposure time, the camera F-stop, or the laser power. Instrument settings for a typical assay are the following: laser power 0.3-0.6 W, camera F-stop F/2, and exposure time 0.4 sec.
(§3) Fluorescence data are collected in real-time at 1.0 sec intervals for the first 60 secs and at 6.0 sec intervals for an additional 120 secs. […] The data are then analyzed using an automated, iterative, sigmoidal curve-fitting computer program to obtain the potency and intrinsic activities of the test agents as previously described (Sharif et al. J. Pharmacol. Exp. Ther. 286: 1094-1102, 1998; Sharif et al. Invest. Opthalmol. Vis. Sci. 39:2562-2571, 1998; Kelly et al. J. Pharmacol. Exp. Ther. 304: 238-245, 2003). The sources of materials and reagents for such assays can be found in the references cited above.

[4] = target: T4, BK B2-Receptor in h-CM cells (Homo sapiens, UniProt P30411); experiment: Antagonism of BK-induced [Ca^2+]i mobilization in h-CM cells; assay type: cell-based; settings: read-out: Antagonist Potency (Ki; nM) vs BK (10 nM) in [Ca^2+]i Mobilization Assay, mean ± SEM or individual experiments
T4 construct: we discovered and pharmacologically characterized B2-receptor proteins in h-TM, h-CM and h-NPE cells; endogenous in cells; host or cells: primary human ciliary muscle (h-CM) cells
T4 sequence (P30411 1-391): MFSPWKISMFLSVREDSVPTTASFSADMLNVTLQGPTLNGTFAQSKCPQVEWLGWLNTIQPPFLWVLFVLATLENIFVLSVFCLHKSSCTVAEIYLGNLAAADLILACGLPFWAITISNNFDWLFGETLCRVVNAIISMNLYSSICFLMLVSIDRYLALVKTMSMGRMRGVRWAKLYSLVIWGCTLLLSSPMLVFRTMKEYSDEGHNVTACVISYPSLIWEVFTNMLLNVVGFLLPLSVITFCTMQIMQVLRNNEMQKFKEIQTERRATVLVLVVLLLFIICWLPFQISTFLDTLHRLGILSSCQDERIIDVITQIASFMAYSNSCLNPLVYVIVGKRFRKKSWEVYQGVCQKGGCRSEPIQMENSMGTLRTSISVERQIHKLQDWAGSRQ
Method: as §1, §2, §3

[5] = tested on: h-CM cells; experiment: Production and release of endogenous prostaglandins from h-CM cells; assay type: cell-based, human; settings: BK 1 μM, relative to baseline and to fluprostenol
Method: A functional assay to discover BK agonists may involve the measurement of prostaglandin E2 (PGE2) production (Wiernas et al. Brit. J. Pharmacol. 123: 1127-1137, 1998), for instance, in cells isolated from human or animal ocular or non-ocular tissues, or cells expressing recombinant (preferably human) BK receptors. Cells expressing BK receptors are seeded in 48-wells culture plates and allowed to reach confluence. After this time the cells are rinsed twice with 0.5 mL of phosphate buffered saline and incubated with the test agent made up in 0.5 mL Dulbeco's modified Eagle's medium (DMEM)/F-12 for 1 h at 37° C. […]
After this incubation, all tubes are placed in an ice-bath and 1 ml cold precipitating reagent supplied in the kit is added to the tubes, the content mixed and incubated for 25 min at 4° C. […] The supernatants of all tubes are decanted as specified in the kit instructions and the RIA samples analyzed on a gamma-counter. The levels of PGE2 generated by the test agent are then quantified in comparison with the PGE2-standard curve. Dose-response data for the test agent are constructed and the potency and intrinsic activity determined as described above for other assays. […]

`CSCC[C@H](N)C(=O)N[C@@H](CCCCN)C(=O)N[C@@H](CCCNC(=N)N)C(=O)N1CCC[C@H]1C(=O)N1CCC[C@H]1C(=O)NCC(=O)N[C@@H](Cc1ccccc1)C(=O)N[C@@H](CO)C(=O)N1CCC[C@H]1C(=O)N[C@@H](Cc1ccccc1)C(=O)N[C@@H](CCCNC(=N)N)C(=O)O` [Met-Lys-BK] gave an Emax [1] of 70 to 77%.

With `Cc1nc2c(OCc3c(Cl)ccc(N(C)C(=O)CNC(=O)/C=C/c4ccc(C(=O)N(C)C)cc4)c3Cl)cccn2c1Br` [FR-167344] the Ki [2] was 69 nM and 19 nM, the Ki [3] was 393 nM and 223 nM and the Ki [4] was 13 nM and 4 nM.

`O=C(O)CCC/C=C\C[C@@H]1[C@@H](/C=C/[C@@H](O)COc2cccc(C(F)(F)F)c2)[C@H](O)C[C@@H]1O` (racemic) [fluprostenol] was tested, and the production of prostaglandins [5] was “stimulation of production and release of endogenous prostaglandins”.

For `CC(=O)Nc1ccc(/C=C/C(=O)NCC(=O)N(C)c2ccc(Cl)c(COc3cccc4ccc(C)nc34)c2Cl)cn1` [FR-173657], the Ki [2] was 121 nM and 193 nM, the Ki [3] was 787 nM and 788 nM and the Ki [4] was 35 nM and 11 nM.
